For data set [1], the system named is A-2780 (ovarian) cancer cells. Briefly: In vitro cytotoxicity assessment (MTT), A-2780. It counts as cell-based, human. Conditions: for IC50: Homo sapiens, A2780, 48 h, MTT, mean of three experiments ± SD, NA: not active; for SI (selectivity index) A-2780: IC50 in WI38 normal cells / IC50 in A-2780. An excerpt:
(§1) Four cancer cell lines were used in this study viz ovarian (A-2780), colon (HT-29), breast (MCF-7), and liver (HepG2) cancer cells. They were provided by the National Institute of Cancer, Cairo University (Cairo, Egypt). The selection of those cancer cells was encouraged by the stated anticancer activity of a number 5-Fluorouracil hybrids against the mentioned cancer cells and based on the reported cytotoxic activity of a large range of bioactive cores containing sulfonamide moiety.
(§2) Cells were seeded in 96 well plates at a density of 2 × 10^4 and incubated to allow the attachment for 24 h. Then the cells were treated at different concentrations (2.5–10 μM) with 5-FU as a positive control or the synthesized compounds for 48h. 0.1% DMSO was used as a negative control. Afterward, cells were washed using PBS and the viability of cells was evaluated utilizing in vitro toxicology assay kit, MTT Based (Stock No. TOX-1, Sigma-Aldrich, Saint Louis, Missouri, USA), per the manufacturer’s instructions. The plates were read at 570 nm. IC50 was calculated using a sigmoidal dose-response curve (GraphPad Prism version 5 for Windows (GraphPad Inc., USA)). Data are presented as the mean of the three individual experiments. The degree of selectivity of the active target compounds relative to WI38 normal cell lines is expressed as previously described. Selectivity index (SI) = IC50 of a pure compound in a normal cell line/IC50 of the same pure compound in a cancerous cell line.

Data set [2] has as its system HT-29 (colon) cancer cells. Briefly: In vitro cytotoxicity assessment (MTT), HT-29. Conditions: for IC50: Homo sapiens, HT-29, 48 h, MTT, mean of three experiments ± SD, NA: not active; for SI (selectivity index) HT-29: IC50 in WI38 normal cells / IC50 in HT-29. Type of data set: cell-based, human.
Source text: as §1, §2

The subject of data set [3] is MCF-7 (breast) cancer cells. Briefly: In vitro cytotoxicity assessment (MTT), MCF-7. Type of data set: cell-based, human. Conditions: for IC50: Homo sapiens, MCF7, 48 h, MTT, mean of three experiments ± SD, NA: not active; for SI (selectivity index) MCF-7: IC50 in WI38 normal cells / IC50 in MCF-7.
Source text: as §1, §2

Data set [4] concerns HepG2 (liver) cancer cells. The data set can be described thus: In vitro cytotoxicity assessment (MTT), HepG2. Conditions: for IC50: Homo sapiens, HepG2, 48 h, MTT, mean of three experiments ± SD, NA: not active; for SI (selectivity index) HepG2: IC50 in WI38 normal cells / IC50 in HepG2. It counts as cell-based, human.
Source text: as §1, §2

The subject of a further data set is WI38 normal cells. Briefly: In vitro cytotoxicity assessment (MTT), normal cells. Type of data set: cell-based. Conditions: WI-38; normal human cell line WI38, MTT. The method, then: as §2, with “Then the cells were treated at different concentrations (2.5–10 μM) with 5-FU as a positive control or the synthesized compounds for 48h.” left out
The target of another data set is T1, CDK2/CyclinA2 (Homo sapiens, UniProt P24941).
T1 construct: purchased #79599
The data set can be described thus: In vitro inhibitory screening of CDK2 (CDK2 Assay kit, Kinase-Glo MAX). Type of data set: biochemical. Conditions: CDK2/CyclinA2, 30 °C 45 min; mean of three experiments ± SD; read-out: CDK2 Protein Kinase (IC50 in µM). A general note: Kinase-Glo measures the ATP left after a reaction by luminescence.

Results on 14 molecules are retold here after paper PMC8584424, “Synthesis of Novel 2-Thiouracil-5-Sulfonamide Derivatives as Potent Inducers of Cell Cycle Arrest and CDK2A Inhibition Supported by Molecular Docking” (International Journal of Molecular Sciences, 2021).

In general, IC50 refers to the concentration that gives 50% inhibition. As usually defined, the melting point is the temperature, or range, at which the solid turns liquid.

Method for CDK2/CyclinA2: To measure CDK2/CyclinA2 activity, the CDK2 Assay kit #79599 was used for screening and profiling applications, together with Kinase-Glo® MAX (Promega#V6071) as a detection reagent. […] Briefly, 25 μL of the master mixture containing 6 μL Kinase assay buffer + 1 μL ATP + 5 μL CDK substrate peptide + 13 μL distilled water were added to each well. Later, 5 µL of inhibitor buffer only or diluted compound were added to the blank or test inhibitor wells, respectively. Then, 20μL of Kinase assay buffer was added to blank wells. The reaction was started by the addition of 20 μL of CDK2/CyclinA2 enzyme to the wells of the test inhibitor. The final volume was 50 µL in all of the reactions. Incubation was at 30 °C for 45 min for all the enzymatic reactions. Finally, to each well, 50 μL of Kinase-Glo MAX reagent was added. The plate was incubated for 15 min at room temperature then, the luminescence signal was measured using a Bio Tek Synergy 2 microplate reader. Experiments were performed in triplicates.

As for `O=c1[nH]cc(F)c(=O)[nH]1` [Compound 5-FU, 5-fluorouracil, reference compound], the half-inhibitory concentration (IC50) turned out to be 3.92 ± 1 µM in data set [1], 4.69 ± 1.13 µM in data set [2], 5.15 ± 1.14 µM in data set [3] and 38.4 ± 2.4 µM in data set [4].

In turn, `Cc1[nH]c(=S)[nH]c(=O)c1S(=O)(=O)Nc1ccccc1` [Compound 6a, 6-Methyl-4-Oxo-N-Phenyl-2-Thioxo-1,2,3,4-Tetrahydropyrimidine-5-Sulfonamide] returned a melting point of 316 to 318 °C. In data set [1], the IC50 was 17.7 ± 2.18 µM. Further, the midpoint of inhibition in data set [2], the IC50, lay at 11.3 ± 2.08 µM. Further, it took 16.8 ± 2.11 µM to reach half-maximal inhibition in data set [3] (IC50). Besides, the IC50 in data set [4] came out at 15.6 ± 1.52 µM.

In turn, `COc1ccc(NS(=O)(=O)c2c(C)[nH]c(=S)[nH]c2=O)cc1` [Compound 6b, N-(4-Methoxyphenyl)-6-Methyl-4-Oxo-2-Thioxo-1,2,3,4-Tetrahydropyrimidine-5-Sulfon-Amide] returned a melting point of 320 to 322 °C. Also, in data set [1], it took 2.56 ± 0.45 µM to reach half-maximal inhibition (IC50) and the “SI (selectivity index) A-2780” value is on record as 28.00. For the same molecule, in data set [2], half-maximal inhibition (IC50) was put at 5.1 ± 1.32 µM and the “SI (selectivity index) HT-29” value turned out to be 14.05. In data set [3], the IC50 was determined as 2.29 ± 0.63 µM and the “SI (selectivity index) MCF-7” value is given as 31.29. In data set [4], 2.23 ± 0.55 µM corresponded to half-maximal inhibition (IC50) and the “SI (selectivity index) HepG2” value is recorded as 32.13. This molecule also yielded a half-inhibitory concentration (IC50) with WI38 normal cells of 71.7 ± 2 µM. Further, the IC50 at CDK2/CyclinA2 was 0.447 ± 0.031 µM.

As to `Cc1ccc(NS(=O)(=O)c2c(C)[nH]c(=S)[nH]c2=O)cc1` [Compound 6c, 6-Methyl-4-Oxo-2-Thioxo-N-(P-Tolyl)-1,2,3,4-Tetrahydropyrimidine-5-Sulfonamide], the melting point lay within 313 to 315 °C. Besides, in data set [1], the IC50 was determined as 14 ± 1.05 µM and the “SI (selectivity index) A-2780” value was 6.02. In data set [2], half-maximal inhibition (IC50) was put at 5.46 ± 1.66 µM and the “SI (selectivity index) HT-29” value is 15.46. Moreover, in data set [3], 6.36 ± 1.2 µM corresponded to half-maximal inhibition (IC50) and the “SI (selectivity index) MCF-7” value was 13.27. Further, in data set [4], the IC50 is 6.71 ± 0.99 µM and the “SI (selectivity index) HepG2” value came out at 12.58. The IC50 in the data set on WI38 normal cells worked out at 84.4 ± 1.7 µM.

`CC(=O)c1cccc(NS(=O)(=O)c2c(C)[nH]c(=S)[nH]c2=O)c1` [Compound 6d, N-(3-Acetylphenyl)-6-Methyl-4-Oxo-2-Thioxo-1,2,3,4-Tetrahydropyrimidine-5-Sulfonamide] came in with a melting point of 318 to 320 °C. Also, in data set [1], inhibition was half-maximal at 11.7 ± 1.99 µM (IC50) and the “SI (selectivity index) A-2780” value amounted to 6.37. In addition, in data set [2], half-maximal inhibition (IC50) was put at 6.13 ± 0.53 µM and the “SI (selectivity index) HT-29” value is 12.13. For the same molecule, in data set [3], the IC50 worked out at 2.3 ± 0.62 µM and the “SI (selectivity index) MCF-7” value is on record as 32.33. The half-maximal inhibitory concentration (IC50) in data set [4] was 5.24 ± 1.05 µM. The molecule also came in with a half-maximal inhibitory concentration (IC50) in the data set with WI38 normal cells of 74.4 ± 4.74 µM. Also, at CDK2/CyclinA2, the half-maximal inhibitory concentration (IC50) worked out at 0.567 ± 0.021 µM.

As for `Cc1[nH]c(=S)[nH]c(=O)c1S(=O)(=O)Nc1ccc([N+](=O)[O-])cc1` [Compound 6f, 6-Methyl-N-(4-Nitrophenyl)-4-Oxo-2-Thioxo-1,2,3,4-Tetrahydropyrimidine-5-Sulfonamide], the IC50 in data set [1] was 10.2 ± 0.97 µM; in data set [2], 6.4 ± 1.24 µM; in data set [3] it was 2.34 ± 0.61 µM; in data set [4] it was 6.1 ± 0.48 µM; in the data set with WI38 normal cells, 65.7 ± 2.28 µM; at CDK2/CyclinA2 it was 0.605 ± 0.023 µM.

In the case of `Cc1[nH]c(=S)[nH]c(=O)c1S(=O)(=O)Nc1ccc(Br)cc1` [Compound 6g, N-(4-Bromophenyl)-6-Methyl-4-Oxo-2-Thioxo-1,2,3,4-Tetrahydropyrimidine-5-Sulfonamide], the melting point is 333 to 335 °C. In addition, in data set [1], the midpoint of inhibition, the IC50, lay at 1.62 ± 0.35 µM and the “SI (selectivity index) A-2780” value came out at 43.58. Besides, in data set [2], the IC50 amounted to 5.05 ± 0.83 µM and the “SI (selectivity index) HT-29” value amounted to 13.98. In data set [3], the IC50 was determined as 7.31 ± 1.21 µM and the “SI (selectivity index) MCF-7” value was 9.65. In data set [4], the 50% inhibitory concentration (IC50) amounted to 2.47 ± 0.51 µM. Also, the IC50 with WI38 normal cells was found to be 70.6 ± 2.14 µM. In addition, the half-maximal inhibitory concentration (IC50) on CDK2/CyclinA2 was 0.485 ± 0.033 µM.

Regarding `Cc1[nH]c(=S)[nH]c(=O)c1S(=O)(=O)Nc1cccc(C(=O)C=Cc2ccc(Cl)cc2)c1` [Compound 7a, N-(3-(3-(4-Chlorophenyl)acryloyl)phenyl)-6-Methyl-4-Oxo-2-Thioxo-1,2,3,4-Tetrahydro Pyrimidine-5-Sulfonamide], the melting point lay in the range of 315 to 317 °C. For the same molecule, in data set [1], the half-inhibitory concentration (IC50) was determined as 12.5 ± 2.1 µM and the “SI (selectivity index) A-2780” value stood at 6.66. Besides, in data set [2], half-maximal inhibition (IC50) was put at 4.2 ± 0.88 µM and the “SI (selectivity index) HT-29” value is reported as 19.78. In data set [3], the half-inhibitory concentration (IC50) was found to be 6.9 ± 1.33 µM and the “SI (selectivity index) MCF-7” value is reported as 12.04. Besides, in data set [4], the IC50 was 10.9 ± 1.72 µM and the “SI (selectivity index) HepG2” value was 7.61. In the data set with WI38 normal cells, the half-inhibitory concentration (IC50) came to 83.1 ± 2 µM. In addition, at CDK2/CyclinA2, the IC50 amounted to 6.41 ± 0.377 µM.

On to `Cc1[nH]c(=S)[nH]c(=O)c1S(=O)(=O)NNC(N)=S` [Compound 8a, [(6-Methyl-4-Oxo-2-Thioxo-1,2,3,4-Tetrahydropyrimidin-5-Yl) Sulfonylamino] Thiourea], for which the melting point fell in the range of 343 to 345 °C. In data set [1], this molecule registered an IC50 of 16.8 ± 1.82 µM. Moreover, the IC50 in data set [2] was 8.02 ± 1.99 µM. Also, in data set [3], the IC50 turned out to be 13.3 ± 3 µM. Besides, in data set [4], the IC50 came out at 18 ± 1.95 µM.

Consider `Cc1[nH]c(=S)[nH]c(=O)c1S(=O)(=O)NNc1ccccc1` [Compound 8b, 6-Methyl-4-Oxo-N′-Phenyl-2-Thioxo-1,2,3,4-Tetrahydropyrimidine-5-Sulfonohydrazide], for which the IC50 in data set [1] came to 16.4 ± 1.55 µM; in data set [2] it was 8.16 ± 2.07 µM; in data set [3], 9.89 ± 1.8 µM; in data set [4], 13.1 ± 2.04 µM.

Regarding `Cc1[nH]c(=S)[nH]c(=O)c1S(=O)(=O)NNc1ccc([N+](=O)[O-])cc1[N+](=O)[O-]` [Compound 8c, N′-(2,4-Dinitrophenyl)-6-Methyl-4-Oxo-2-Thioxo-1,2,3,4-Tetrahydropyrimidine-5-Sulfono Hydrazide], the melting point lay within 321 to 323 °C. In addition, it took 8.57 ± 1.79 µM to reach half-maximal inhibition in data set [1] (IC50). Further, inhibition in data set [2] was half-maximal at 10.1 ± 1.54 µM (IC50). For the same molecule, inhibition in data set [3] was half-maximal at 5.54 ± 1.58 µM (IC50). In data set [4], this molecule yielded an IC50 of 14.8 ± 1.45 µM.

For the molecule `Cc1[nH]c(=S)[nH]c(=O)c1S(=O)(=O)NNC(=O)c1ccc(Cl)cc1` [Compound 9a, N′-(4-Chlorobenzoyl)-6-Methyl-4-Oxo-2-Thioxo-1,2,3,4-Tetrahydropyrimidine-5-Sulfono-Hydrazide], the melting point lay in the range of 327 to 329 °C. This molecule also had an IC50 in data set [1] of 11.9 ± 3.47 µM. Further, the IC50 in data set [2] came out at 6.64 ± 1.19 µM. The molecule also had a 50% inhibitory concentration (IC50) in data set [3] of 10.8 ± 1.53 µM. Moreover, the IC50 in data set [4] worked out at 11 ± 1.23 µM.

Consider `Cc1[nH]c(=S)[nH]c(=O)c1S(=O)(=O)NNC(=O)c1ccccc1Cl` [Compound 9b, N′-(2-Chlorobenzoyl)-6-Methyl-4-Oxo-2-Thioxo-1,2,3,4-Tetrahydropyrimidine-5-Sulfono-Hydrazide], for which the melting point fell in the range of 334 to 336 °C. The molecule also had an IC50 in data set [1] of 7.95 ± 1.75 µM. The molecule also came in with a half-inhibitory concentration (IC50) in data set [2] of 10.6 ± 1.25 µM. In addition, the IC50 in data set [3] turned out to be 13.6 ± 2.65 µM. Besides, in data set [4], the midpoint of inhibition, the IC50, lay at 13.3 ± 1.5 µM.

As for `Cc1[nH]c(=S)[nH]c(=O)c1S(=O)(=O)NNC(=O)c1ccc(Br)cc1` [Compound 9c, N′-(4-Bromobenzoyl)-6-Methyl-4-Oxo-2-Thioxo-1,2,3,4-Tetrahydropyrimidine-5-Sulfono-Hydrazide], the melting point is 339 to 341 °C. In data set [1], the concentration for half-maximal inhibition (IC50) was determined as 8.16 ± 2.07 µM. The molecule also had a half-maximal inhibitory concentration (IC50) in data set [2] of 6.99 ± 1.35 µM. In data set [3], this molecule gave a half-maximal inhibitory concentration (IC50) of 11.9 ± 2 µM. This molecule registered a concentration for half-maximal inhibition (IC50) in data set [4] of 9.44 ± 1.03 µM.
